Reference: the NIST ThermoML archive (doi:10.1021/je050428j)
± gives the expanded uncertainty stated by the source.

Settings: 298.15 K; 101.33 kPa; Liquid; Vibrating tube method

| mass density [kg/m3] | SMILES |
| --- | --- |
| 698.636 ± 0.41 | CCCCCCCC [octane] |
| 936.214 ± 0.48 | CC(=O)N(C)C [N,N-dimethylethanamide] |
| 679.627 ± 0.27 | CCCCCCC [heptane] |
| 714.064 ± 0.41 | CCCCCCCCC [nonane] |
| 943.875 ± 0.25 | CN(C)C=O [dimethylformamide] |
| 655.248 ± 0.28 | CCCCCC [hexane] |
